{
  "source": "patent US20120165285A1",
  "about": "“COMBINED PREPARATION FOR USE AS A MEDICAMENT” (priority 2009, published 2012)",
  "key": {"[1]": {"system": "patients suffering from diabetic neuropathy", "assay": "Phase 2A clinical trial, diabetic neuropathic pain", "type": "in vivo, human", "procedure": "In a Phase 2A clinical trial, patients suffering from diabetic neuropathy were administered 2-methoxyadenosine (2-MeOAd)) (7 mg 3 times per day) or a placebo over a four week period, and asked to rate their pain intensity (diabetic neuropathic pain) once per week based on an 11 point Likert Scale (0-10). The patients included some who were already being administered with a calcium channel blocker at a conventional therapeutic dose. The calcium channel blockers administered included Amlodipine (5-10 mg once per day), Verapamil, or Felodipine.\nPatients in the clinical trial also completed the Short form McGill pain questionnaire (SF-MPQ) (Melzack, Pain, 1987, August; 30(2):191-7). The main component of the SF-MPQ consists of 15 descriptors (11 sensory; 4 affective) which are rated on an intensity scale as […], 1=mild, 2=moderate or 3=severe. Three pain scores are derived from the sum of the intensity rank values of the words chosen for sensory, affective and total descriptors. The SF-MPQ also includes the Present Pain Intensity (PPI) index of the standard MPQ and a visual analogue scale (VAS)."}, "[2]": {"system": "rat adjuvant model of arthritis", "assay": "Rat adjuvant model of arthritis, analgesic relief", "type": "in vivo"}, "adenosine A2A receptor": {"target": "adenosine A2A receptor (Homo sapiens, UniProt P29274)", "sequence (P29274 whole entry)": "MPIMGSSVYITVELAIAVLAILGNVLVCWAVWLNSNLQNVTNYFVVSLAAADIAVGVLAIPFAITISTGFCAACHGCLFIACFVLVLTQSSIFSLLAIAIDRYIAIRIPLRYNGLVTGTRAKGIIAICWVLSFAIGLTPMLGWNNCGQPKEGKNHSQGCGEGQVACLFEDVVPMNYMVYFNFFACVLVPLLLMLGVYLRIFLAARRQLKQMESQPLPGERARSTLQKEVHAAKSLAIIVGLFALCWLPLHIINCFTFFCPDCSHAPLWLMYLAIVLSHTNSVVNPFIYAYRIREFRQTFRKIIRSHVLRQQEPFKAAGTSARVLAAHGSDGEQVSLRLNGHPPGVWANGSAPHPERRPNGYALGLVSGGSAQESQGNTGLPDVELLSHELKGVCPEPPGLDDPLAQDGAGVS", "assay": "EC50 at the adenosine A2A receptor", "type": "biochemical", "excerpt": "For the avoidance of doubt, the EC50 value of a compound is defined herein as the concentration of the compound that provokes a receptor response halfway between the baseline receptor response and the maximum receptor response (as determined, for example, using a dose-response curve).\nThe EC50 value should be determined under standard conditions (balanced salt solutions buffered to pH 7.4). For EC50 determinations using isolated membranes, cells and tissues this would be in buffered salt solution at pH 7.4 (e.g. cell culture medium), for example as in Daly et al., Pharmacol. (1993) 46, 91-100), or preferably as in Tilburg et al (J. Med. Chem. (2002) 45, 91-100). The EC50 could also be determined in vivo by measuring A2A adenosine receptor mediated responses in a normal healthy animal, or even in a tissue perfused under normal conditions (i.e. oxygenated blood, or oxygenated isotonic media, also buffered at pH 7.4) in a normal healthy animal."}, "A2A adenosine receptor": {"target": "A2A adenosine receptor (Homo sapiens, UniProt P29274)", "sequence (P29274 whole entry)": "as above", "settings": "pH below 7.4; cited from earlier work"}, "[3]": {"settings": "patients also administered a calcium channel blocker"}, "[4]": {"settings": "with calcium channel blocker, P<0.02"}},
  "data": [
    {"smiles": "COc1nc(N)c2ncn([C@@H]3O[C@H](CO)[C@@H](O)[C@H]3O)c2n1", "note": "[2-methoxyadenosine]", "values": [
      {"measurement": "effect on 24-hour pain intensity compared with placebo", "setting": "[1]; [3]", "result": "significant effect"},
      {"measurement": "responder rate, patients who experienced >30% pain relief", "setting": "[1]; [3]", "result": 74, "unit": "%"},
      {"measurement": "responder rate, patients who experienced >50% pain relief", "setting": "[1]; [3]", "result": 43, "unit": "%"},
      {"measurement": "median change from baseline in 24-hour pain intensity", "setting": "[1]; patients also administered a calcium channel blocker, after 4 weeks, 7 mg 3 times per day, 11 point Likert Scale, P<0.01", "result": "more than −2.5"},
      {"measurement": "effect on 24-hour pain intensity compared with placebo", "setting": "[1]; patients not also administered a calcium channel blocker", "result": "no effect"},
      {"measurement": "median change from baseline in 24-hour pain intensity, difference below placebo", "setting": "[1]; whole patient population (with and without calcium channel blocker), Week 4, 7 mg 3 times per day, 11 point Likert Scale", "result": 0.7},
      {"measurement": "patient global impression of change (PGIC), 7 point scale", "setting": "[1]; with calcium channel blocker", "result": "favourable effect"},
      {"measurement": "Clinical global impression of change (CGIC), 7 point scale", "setting": "[1]; [4]", "result": "reduction"},
      {"measurement": "pain rated by the VAS (SF-MPQ)", "setting": "[1]; [4]", "result": "reduction"},
      {"measurement": "SF-MPQ total pain intensity score", "setting": "[1]; with calcium channel blocker, P<0.03", "result": "reduction"},
      {"measurement": "present pain intensity (PPI, SF-MPQ)", "setting": "[1]; with calcium channel blocker, P<0.04", "result": "reduction"},
      {"measurement": "minimum plasma concentration giving maximal analgesic relief", "setting": "[2]", "result": 0.06, "unit": "µM"},
      {"measurement": "EC50", "setting": "adenosine A2A receptor", "result": "~1000", "unit": "nM"},
      {"measurement": "affinity for adenosine receptors at pH below pH 7.4", "setting": "A2A adenosine receptor", "result": "increased affinity"}
    ]}
  ]
}
